Columns and labels:
Assay type in all cases: functional
Prevotella bivia = experiment: Antimicrobial activity in Prevotella bivia by CLSI agar dilution method in presence of clavulanate
Hoylesella loescheii = experiment: Antimicrobial activity in Prevotella loescheii by CLSI agar dilution method in presence of clavulanate
[1] = system: Parabacteroides distasonis; experiment: Antimicrobial activity in Bacteroides distasonis by CLSI agar dilution method in presence of clavulanate
Bacteroides fragilis = experiment: Antimicrobial activity in Bacteroides fragilis by CLSI agar dilution method in presence of clavulanate
[Clostridium] innocuum = Antimicrobial activity in Clostridium innocuum by CLSI agar dilution method in presence of clavulanate
[2] = system: Prevotella melaninogenica; experiment: Antimicrobial activity in Prevotella melaninogenica by CLSI agar dilution method in presence of clavulanate
Fusobacterium varium = experiment: Antimicrobial activity in Fusobacterium varium by CLSI agar dilution method in presence of clavulanate
Prevotella bergensis = experiment: Antimicrobial activity in Prevotella bergensis by CLSI agar dilution method in presence of clavulanate; conditions: Hallella bergensis
Phocaeicola vulgatus = experiment: Antimicrobial activity in Bacteroides vulgatus by CLSI agar dilution method in presence of clavulanate
Porphyromonas gingivalis = experiment: Antimicrobial activity in Porphyromonas gingivalis by CLSI agar dilution method in presence of clavulanate
Fusobacterium mortiferum = experiment: Antimicrobial activity in Fusobacterium mortiferum by CLSI agar dilution method in presence of clavulanate
Prevotella baroniae = experiment: Antimicrobial activity in Prevotella baroniae by CLSI agar dilution method in presence of clavulanate; conditions: Segatella baroniae
Clostridium perfringens = experiment: Antimicrobial activity in Clostridium perfringens by CLSI agar dilution method in presence of clavulanate
Prevotella corporis = experiment: Antimicrobial activity in Prevotella corporis by CLSI agar dilution method in presence of clavulanate
Lactobacillus = experiment: Antimicrobial activity in Lactobacillus by CLSI agar dilution method in presence of clavulanate
Tissierella praeacuta = experiment: Antimicrobial activity in Clostridium hastiforme by CLSI agar dilution method in presence of clavulanate
Actinomyces = experiment: Antimicrobial activity in Actinomyces by CLSI agar dilution method in presence of clavulanate
Clostridium cadaveris = experiment: Antimicrobial activity in Clostridium cadaveris by CLSI agar dilution method in presence of clavulanate
Finegoldia magna = experiment: Antimicrobial activity in Finegoldia magna by CLSI agar dilution method in presence of clavulanate
[3] = system: Bacteroides thetaiotaomicron; experiment: Antimicrobial activity in Bacteroides thetaiotaomicron by CLSI agar dilution method in presence of clavulanate
[4] = system: Porphyromonas asaccharolytica; experiment: Antimicrobial activity in Porphyromonas asaccharolytica by CLSI agar dilution method in presence of clavulanate
Prevotella veroralis = experiment: Antimicrobial activity in Prevotella veroralis by CLSI agar dilution method in presence of clavulanate
Parvimonas micra = experiment: Antimicrobial activity in Micromonas micros by CLSI agar dilution method in presence of clavulanate
Fusobacterium nucleatum = experiment: Antimicrobial activity in Fusobacterium nucleatum by CLSI agar dilution method in presence of clavulanate
[5] = system: Paeniclostridium sordellii; experiment: Antimicrobial activity in Clostridium sordellii by CLSI agar dilution method in presence of clavulanate; conditions: Paraclostridium sordellii
Clostridium butyricum = experiment: Antimicrobial activity in Clostridium butyricum by CLSI agar dilution method in presence of clavulanate
Eggerthella lenta = experiment: Antimicrobial activity in Eggerthella lenta by CLSI agar dilution method in presence of clavulanate
Hoylesella oralis = experiment: Antimicrobial activity in Prevotella oralis group by CLSI agar dilution method in presence of clavulanate
Clostridioides difficile = experiment: Antimicrobial activity in Clostridium difficile by CLSI agar dilution method in presence of clavulanate
Bacteroides ovatus = experiment: Antimicrobial activity in Bacteroides ovatus by CLSI agar dilution method in presence of clavulanate
Prevotella denticola = experiment: Antimicrobial activity in Prevotella denticola by CLSI agar dilution method in presence of clavulanate
Anaerococcus prevotii = experiment: Antimicrobial activity in Anaerococcus prevotii by CLSI agar dilution method in presence of clavulanate
Clostridium tertium = experiment: Antimicrobial activity in Clostridium tertium by CLSI agar dilution method in presence of clavulanate
[6] = system: Fusobacterium necrophorum; experiment: Antimicrobial activity in Fusobacterium necrophorum by CLSI agar dilution method in presence of clavulanate
Prevotella salivae = experiment: Antimicrobial activity in Prevotella salivae by CLSI agar dilution method in presence of clavulanate; conditions: Segatella salivae
[7] = system: Paraclostridium bifermentans; experiment: Antimicrobial activity in Clostridium bifermentans by CLSI agar dilution method in presence of clavulanate
Prevotella sp. = experiment: Antimicrobial activity in Prevotella sp.by CLSI agar dilution method in presence of clavulanate
[8] = system: Enterocloster clostridioformis; experiment: Antimicrobial activity in Clostridium clostridioforme by CLSI agar dilution method in presence of clavulanate
Anaerococcus tetradius = experiment: Antimicrobial activity in Anaerococcus tetradius by CLSI agar dilution method in presence of clavulanate
Prevotella intermedia = experiment: Antimicrobial activity in Prevotella intermedia by CLSI agar dilution method in presence of clavulanate
Thomasclavelia ramosa = experiment: Antimicrobial activity in Clostridium ramosum by CLSI agar dilution method in presence of clavulanate
[9] = system: Peptoniphilus asaccharolyticus; experiment: Antimicrobial activity in Peptoniphilus asaccharolyticus by CLSI agar dilution method in presence of clavulanate
Bacteroides uniformis = experiment: Antimicrobial activity in Bacteroides uniformis by CLSI agar dilution method in presence of clavulanate
Cutibacterium acnes = experiment: Antimicrobial activity in Propionibacterium acnes by CLSI agar dilution method in presence of clavulanate
[10] = system: Peptostreptococcus anaerobius; experiment: Antimicrobial activity in Peptostreptococcus anaerobius by CLSI agar dilution method in presence of clavulanate
Prevotella buccae = experiment: Antimicrobial activity in Prevotella buccae by CLSI agar dilution method in presence of clavulanate; conditions: Segatella buccae
Prevotella disiens = experiment: Antimicrobial activity in Prevotella disiens by CLSI agar dilution method in presence of clavulanate
Bacteroides stercoris = experiment: Antimicrobial activity in Bacteroides stercoris by CLSI agar dilution method in presence of clavulanate
Clostridium sp. = experiment: Antimicrobial activity in Clostridium sp. by CLSI agar dilution method in presence of clavulanate
Prevotella nigrescens = experiment: Antimicrobial activity in Prevotella nigrescens by CLSI agar dilution method in presence of clavulanate
Bifidobacterium = experiment: Antimicrobial activity in Bifidobacterium by CLSI agar dilution method in presence of clavulanate

CC1(C)S[C@@H]2[C@H](NC(=O)[C@H](N)c3ccc(O)cc3)C(=O)N2[C@H]1C(=O)O [AMOXICILLIN]
4 µg/mL: MIC90 (Prevotella bivia) | MIC50 [1] | MIC90 [3]
16 µg/mL: MIC90 [1]
0.25 µg/mL: MIC (Hoylesella loescheii) | MIC50 [2] | MIC50 (Actinomyces) | MIC50 (Finegoldia magna) | MIC90 (Finegoldia magna) | MIC50 (Prevotella denticola) | MIC [7] | MIC90 (Cutibacterium acnes) | MIC50 [10] | MIC50 (Prevotella disiens) | MIC90 (Bifidobacterium)
32 µg/mL: MIC90 (Fusobacterium mortiferum) | MIC90 [10]
8 µg/mL: MIC90 (Phocaeicola vulgatus)
1 µg/mL: MIC50 (Phocaeicola vulgatus) | MIC50 (Fusobacterium mortiferum) | MIC50 (Lactobacillus) | MIC90 (Lactobacillus) | MIC (Tissierella praeacuta) | MIC50 [3] | MIC (Clostridium butyricum) | MIC50 (Eggerthella lenta) | MIC90 (Eggerthella lenta) | MIC50 (Clostridioides difficile) | MIC [8] | MIC90 (Prevotella buccae) | MIC50 (Bacteroides stercoris)
0.5 µg/mL: MIC50 (Prevotella bivia) | MIC50 (Bacteroides fragilis) | MIC (Prevotella bergensis) | MIC90 (Parvimonas micra) | MIC (Bacteroides ovatus) | MIC50 (Bacteroides ovatus) | MIC (Clostridium tertium) | MIC50 (Clostridium tertium) | MIC90 (Prevotella intermedia) | MIC (Bacteroides uniformis) | MIC50 (Bacteroides uniformis) | MIC (Bacteroides stercoris) | MIC50 (Clostridium sp.) | MIC90 (Clostridium sp.) | MIC90 (Prevotella nigrescens)
2 µg/mL: MIC90 (Bacteroides fragilis) | MIC90 [2] | MIC50 (Fusobacterium varium) | MIC90 (Fusobacterium varium) | MIC90 (Clostridioides difficile) | MIC90 (Bacteroides ovatus) | MIC90 (Prevotella denticola)
≤ 0.125 µg/mL: MIC ([Clostridium] innocuum) | MIC (Porphyromonas gingivalis) | MIC (Prevotella baroniae) | MIC (Clostridium perfringens) | MIC50 (Clostridium perfringens) | MIC90 (Clostridium perfringens) | MIC (Prevotella corporis) | MIC50 (Prevotella corporis) | MIC (Actinomyces) | MIC (Clostridium cadaveris) | MIC [4] | MIC (Prevotella veroralis) | MIC (Parvimonas micra) | MIC50 (Parvimonas micra) | MIC (Fusobacterium nucleatum) | MIC50 (Fusobacterium nucleatum) | MIC90 (Fusobacterium nucleatum) | MIC [5] | MIC (Hoylesella oralis) | MIC (Anaerococcus prevotii) | MIC [6] | MIC50 [6] | MIC (Prevotella salivae) | MIC (Prevotella sp.) | MIC (Anaerococcus tetradius) | MIC50 (Anaerococcus tetradius) | MIC90 (Anaerococcus tetradius) | MIC (Prevotella intermedia) | MIC50 (Prevotella intermedia) | MIC (Thomasclavelia ramosa) | MIC [9] | MIC50 [9] | MIC (Cutibacterium acnes) | MIC50 (Cutibacterium acnes) | MIC (Prevotella buccae) | MIC50 (Prevotella buccae) | MIC (Prevotella disiens) | MIC (Prevotella nigrescens) | MIC50 (Prevotella nigrescens) | MIC (Bifidobacterium) | MIC50 (Bifidobacterium)

Source: ChEMBL document CHEMBL1649156, “Antianaerobic activity of sulopenem compared to six other agents” (2009)
